Measured values from publication PMC6013238, “Development of novel NEMO-binding domain mimetics for inhibiting IKK/NF-κB activation” (PLoS Biology, 2018).
Where “and” joins values, the source holds several entries; their conditions need not be identical. Identical values can stand only once.

Tests used:
mdx mice = experiment: Chronic treatment of mdx mice, laminin stain and minimum Feret diameter of myofibers; type: in vivo, mouse; details: Fig 7F, TA muscle, 4 wk treatment, single mice
Description: Fig 7 NBD mimetics improve muscular pathology and grip strength in mdx mice. (A) Shown is the treatment regimen with NBD mimetics in mdx mice. (B) Hematoxylin–eosin staining of TA muscle from 7-wk-old, treated or untreated mdx mice. Images were taken at magnification of 20×. Representative images were shown for each treatment group. […] (E) TA muscle from 7-wk-old, treated or untreated mdx mice was stained with laminin by IHC to outline myofibers. Overall images of TA muscle were shown on the left side, and the inset panel images were shown on the right side. (F) Quantitation of minimum Feret diameter in centrally and noncentrally nucleated myofibers. (G) Forelimb force determined by grip strength test. Five-wk-old (2 wk post treatment) and 7-wk-old (4 wk post treatment) mdx mice, treated or untreated, were tested for forelimb grip strength. Five sequential tests were performed, and the force was normalized to body weight. Data were shown as mean +/− SEM. Dosages used are as follows: SR12343 (30 mg/kg), SR12460 (30 mg/kg), and 8K-NBD peptide (10 mg/kg). n = 6–7 each group. *P < 0.05, **P < 0.01. Underlying data can be found in S1 Data. eMyHC, embryonic myosin heavy chain; IHC, immunohistochemistry; NBD, NEMO-binding domain; NEMO, NF-κB essential modulator; Pax7, paired box protein 7; qRT-PCR, quantitative real-time polymerase chain reaction; TA, tibialis anterior.
To determine whether SR12343 and SR12460 improve muscle pathology, TA muscle was stained with hematoxylin–eosin to assess inflammatory infiltration, necrosis, central nucleation, and fibrosis. […] In addition, Masson trichrome stain was conducted to further measure muscle fibrosis. Chronic treatment with SR12343 reduced muscle fibrosis (blue) in diaphragm and TA muscle tissues in comparison to control group (Fig 8A & 8B). To further quantitate the extent of inflammation in mdx muscle tissues, diaphragm and TA muscle were immunostained for cluster of differentiation 68 (CD68), a macrophage marker. Treatment with SR12343 reduced the number of CD68^+ cells by almost 50% per myofiber in both diaphragm and TA tissues (Fig 8A & 8B). […] To quantify the average fiber size in an unbiased way, TA muscle was stained with laminin to outline myofibers, and Feret diameter of all myocytes was quantitated in a whole muscle section.
To ensure rigorous quantitation of average fiber size, TA muscle was stained with laminin to outline myofibers. […] Centrally nucleated fibers were determined by first eroding the binary mask of the muscle fibers so that only the central portion of each fiber was present. […] Using the original muscle fiber mask, Feret diameters for centrally nucleated and noncentrally nucleated fibers were then measured.

[1] = test system: NF-κB DNA binding activity; experiment: EMSA of NF-κB DNA binding activity in C2C12 myoblasts; type: cell-based, mouse; details: 200 μM, 1 h, serum-free media; TNF-α 10 ng/ml 15 min
Description: To confirm that the NBD mimetics reduce IKK kinase activity, phosphorylation of IκBα by IKK in response to 10 ng/ml of TNF-α was measured by western blot at 0, 5, and 10 min after stimulation. […] To determine whether the mimetics also reduce NF-κB DNA binding activity, electrophoretic mobility shift assay (EMSA) was conducted both in vitro and in vivo. […] The addition of acetonitrile increased the stability of both ZINC compounds, especially ZINC 5 (Fig 3D).
Fig 3 Two identified small molecules reduce NF-κB DNA binding activity in vivo and in vitro. (A) Levels of p-IκBα with or without treatment in response to TNF-α were determined by western blot analysis. HEK293 cells were pretreated with DMSO, ZINC12909780 (100 μM), and ZINC5 (100 μM) for 30 min followed by the stimulation of 10 ng/ml of TNF-α for 0, 5, and 10 min. Cell lysates were prepared for immunoblot against p-IκBα. GAPDH was used as a loading control. (B) EMSA analysis detecting NF-κB DNA binding activity was performed in C2C12 myoblasts. Cells were pretreated with 200 μM of DMSO, ZINC12909780, and ZINC5 in serum-free media for 1 h. TNF-α was then added to a final concentration of 10 ng/ml and incubated for 15 min. Nuclear extract was obtained for EMSA analysis. (C) EMSA analysis assessing NF-κB DNA binding activity in vivo was performed with quadriceps from mdx mice. […]

| Compound | Feret 90's of non-centrally nucleated fibers (mdx mice) | Feret's of centrally nucleated fibers (mdx mice) | TNF-α-induced NF-κB DNA binding activity (EMSA) [1] |
| --- | --- | --- | --- |
| O=C(CNc1ccc(Cl)cn1)NCCc1cccc(Br)c1 [SR12343] | 30.77 and 40.26 and 44.29 and 46.1 | 29.8 and 35.12 and 37.33 and 39.93 | – |
| O=C(CNCCc1cc(F)cc(F)c1)Nc1ccc(Cl)cn1 [SR12460] | 42.38 and 57.7 and 50.27 and 41.83 and 37.95 | 36.18 and 50.79 and 43.17 and 46.06 and 34.34 | – |
| Nc1ncccc1C(=O)OCC(=O)Nc1ccc(Cl)cc1F [ZINC12909780] | – | – | inhibit TNF-α-induced NF-κB DNA binding activity |
| O=C(COC(=O)Cc1ccccc1F)Nc1ccc(Cl)cn1 [ZINC5] | – | – | inhibit TNF-α-induced NF-κB DNA binding activity |
